In publication PMC12477080, “Polychlorinated biphenyls (PCBs) interact with drug metabolism in vivo” (Archives of Toxicology, 2025):

Test: Stability of substrates and metabolites in quality control samples (benchtop, autosampler, freeze-thaw)
Format: physicochemical
Conditions: for Autosampler stability (24 h) Av. Accuracy (%): 10° C for 24 hours in the autosampler; for 3x freeze-thaw Av. Accuracy (%): after three freeze-thaw cycles; for Benchtop stability (19 h) Ac. Accuracy (%): room temperature for 19 hours
Source text: The method was validated for intra- and interday accuracy and precision, stability, and matrix effects. […] Validation details are provided in Supplementary Tables 5–7 and supplemental Fig. 3. Glucuronidase/sulfatase digests were used to isolate CYP-specific metabolic activities, reducing interference from polymorphic UDP-glucuronosyltransferase (UGT) and sulfotransferase isoforms.
Supplemental table 6: Stability of the substrates and metabolites. Quality control samples were left at room temperature for 19 hours (benchtop stability) and at 10° C for 24 hours in the autosampler (autosampler stability) or were measured after three freeze-thaw cycles. Stability samples were measured against a freshly prepared set of calibrators and quality control samples.

## COc1ccc2nc([S+]([O-])Cc3ncc(CO)c(OC)c3C)[nH]c2c1 (stereo not shown) [5-OH-omeprazole]
QC conc. 0,5 ng/ml
  Autosampler stability (24 h) Av. Accuracy (%): 112,52%
  3x freeze-thaw Av. Accuracy (%): 105,73%
  Benchtop stability (19 h) Ac. Accuracy (%): 95,94%
QC conc. 0,25 ng/ml
  Autosampler stability (24 h) Av. Accuracy (%): 90,94%
  3x freeze-thaw Av. Accuracy (%): 101,98%
  Benchtop stability (19 h) Ac. Accuracy (%): 99,1%
QC conc. 60 ng/ml
  Autosampler stability (24 h) Av. Accuracy (%): 104,61%
  3x freeze-thaw Av. Accuracy (%): 99,23%
  Benchtop stability (19 h) Ac. Accuracy (%): 99,68%
QC conc. 150 ng/ml
  Autosampler stability (24 h) Av. Accuracy (%): 97,73%
  3x freeze-thaw Av. Accuracy (%): 100,57%
  Benchtop stability (19 h) Ac. Accuracy (%): 92,79%
QC conc. 1,5 ng/ml
  Autosampler stability (24 h) Av. Accuracy (%): 102,58%
  3x freeze-thaw Av. Accuracy (%): 103,03%
  Benchtop stability (19 h) Ac. Accuracy (%): 98,98%

## OCc1ncc2n1-c1ccc(Cl)cc1C(c1ccccc1F)=NC2 [1-OH-midazolam]
QC conc. 0,2 ng/ml
  Autosampler stability (24 h) Av. Accuracy (%): 102,59%
  3x freeze-thaw Av. Accuracy (%): 108,6%
  Benchtop stability (19 h) Ac. Accuracy (%): 82,15%
QC conc. 0,6 ng/ml
  Autosampler stability (24 h) Av. Accuracy (%): 107,25%
  3x freeze-thaw Av. Accuracy (%): 109,36%
  Benchtop stability (19 h) Ac. Accuracy (%): 102,06%
QC conc. 24 ng/ml
  Autosampler stability (24 h) Av. Accuracy (%): 113,74%
  3x freeze-thaw Av. Accuracy (%): 106,45%
  Benchtop stability (19 h) Ac. Accuracy (%): 112,46%
QC conc. 60 ng/ml
  Autosampler stability (24 h) Av. Accuracy (%): 105,87%
  3x freeze-thaw Av. Accuracy (%): 100,47%
  Benchtop stability (19 h) Ac. Accuracy (%): 105,11%

## Cc1cccc(Nc2ccncc2S(=O)(=O)NC(=O)NC(C)C)c1 [torsemide, reference compound]
QC conc. 1 ng/ml
  Autosampler stability (24 h) Av. Accuracy (%): 105,13%
  3x freeze-thaw Av. Accuracy (%): 102,74%
  Benchtop stability (19 h) Ac. Accuracy (%): 97,46%
QC conc. 2 ng/ml
  Autosampler stability (24 h) Av. Accuracy (%): 108,32%
  3x freeze-thaw Av. Accuracy (%): 105,85%
  Benchtop stability (19 h) Ac. Accuracy (%): 107,17%
QC conc. 6 ng/ml
  Autosampler stability (24 h) Av. Accuracy (%): 108,92%
  3x freeze-thaw Av. Accuracy (%): 106,12%
  Benchtop stability (19 h) Ac. Accuracy (%): 107,51%
QC conc. 240 ng/ml
  Autosampler stability (24 h) Av. Accuracy (%): 109,92%
  3x freeze-thaw Av. Accuracy (%): 103,96%
  Benchtop stability (19 h) Ac. Accuracy (%): 108,15%
QC conc. 600 ng/ml
  Autosampler stability (24 h) Av. Accuracy (%): 97,91%
  3x freeze-thaw Av. Accuracy (%): 96,67%
  Benchtop stability (19 h) Ac. Accuracy (%): 99,27%

## Cn1c(=O)c2c(ncn2C)n(C)c1=O [caffeine, reference compound]
QC conc. 10 ng/ml
  3x freeze-thaw Av. Accuracy (%): 107,62%
QC conc. 30 ng/ml
  3x freeze-thaw Av. Accuracy (%): 107,18%
QC conc. 1200 ng/ml
  3x freeze-thaw Av. Accuracy (%): 105,12%
QC conc. 3000 ng/ml
  3x freeze-thaw Av. Accuracy (%): 97,54%

## CC(C)NC(=O)NS(=O)(=O)c1cnccc1Nc1cccc(CO)c1 [OH-torsemide]
QC conc. 1 ng/ml
  Autosampler stability (24 h) Av. Accuracy (%): 109,17%
  3x freeze-thaw Av. Accuracy (%): 105,26%
  Benchtop stability (19 h) Ac. Accuracy (%): 106,91%
QC conc. 2 ng/ml
  Autosampler stability (24 h) Av. Accuracy (%): 113,11%
  3x freeze-thaw Av. Accuracy (%): 105,85%
  Benchtop stability (19 h) Ac. Accuracy (%): 107,98%
QC conc. 6 ng/ml
  Autosampler stability (24 h) Av. Accuracy (%): 109,32%
  3x freeze-thaw Av. Accuracy (%): 107,78%
  Benchtop stability (19 h) Ac. Accuracy (%): 111,3%
QC conc. 240 ng/ml
  Autosampler stability (24 h) Av. Accuracy (%): 108,82%
  3x freeze-thaw Av. Accuracy (%): 104,11%
  Benchtop stability (19 h) Ac. Accuracy (%): 106,75%
QC conc. 600 ng/ml
  Autosampler stability (24 h) Av. Accuracy (%): 99,55%
  3x freeze-thaw Av. Accuracy (%): 96,28%
  Benchtop stability (19 h) Ac. Accuracy (%): 99,14%

## COCCc1ccc(OCC(O)CNC(C)C)cc1 (stereo not shown) [metoprolol, reference compound]
QC conc. 0,5 ng/ml
  Autosampler stability (24 h) Av. Accuracy (%): 105,36%
  3x freeze-thaw Av. Accuracy (%): 109,56%
  Benchtop stability (19 h) Ac. Accuracy (%): 106,29%
QC conc. 0,25 ng/ml
  Autosampler stability (24 h) Av. Accuracy (%): 105,01%
  3x freeze-thaw Av. Accuracy (%): 99,7%
  Benchtop stability (19 h) Ac. Accuracy (%): 92,77%
QC conc. 60 ng/ml
  Autosampler stability (24 h) Av. Accuracy (%): 111,39%
  3x freeze-thaw Av. Accuracy (%): 105,26%
  Benchtop stability (19 h) Ac. Accuracy (%): 110,41%
QC conc. 150 ng/ml
  Autosampler stability (24 h) Av. Accuracy (%): 100,37%
  3x freeze-thaw Av. Accuracy (%): 98,84%
  Benchtop stability (19 h) Ac. Accuracy (%): 102,76%
QC conc. 1,5 ng/ml
  Autosampler stability (24 h) Av. Accuracy (%): 112,83%
  3x freeze-thaw Av. Accuracy (%): 103,63%
  Benchtop stability (19 h) Ac. Accuracy (%): 111,4%

## Cn1c(=O)[nH]c2ncn(C)c2c1=O [Paraxanthine]
QC conc. 10 ng/ml
  Autosampler stability (24 h) Av. Accuracy (%): 96,28%
  3x freeze-thaw Av. Accuracy (%): 96,57%
  Benchtop stability (19 h) Ac. Accuracy (%): 89,99%
QC conc. 30 ng/ml
  Autosampler stability (24 h) Av. Accuracy (%): 105,74%
  3x freeze-thaw Av. Accuracy (%): 103,75%
  Benchtop stability (19 h) Ac. Accuracy (%): 105,38%
QC conc. 1200 ng/ml
  Autosampler stability (24 h) Av. Accuracy (%): 105,06%
  3x freeze-thaw Av. Accuracy (%): 100,61%
  Benchtop stability (19 h) Ac. Accuracy (%): 103,5%
QC conc. 3000 ng/ml
  Autosampler stability (24 h) Av. Accuracy (%): 93,91%
  3x freeze-thaw Av. Accuracy (%): 92,32%
  Benchtop stability (19 h) Ac. Accuracy (%): 94,2%

## Cc1ncc2n1-c1ccc(Cl)cc1C(c1ccccc1F)=NC2 [midazolam, reference compound]
QC conc. 0,1 ng/ml
  Autosampler stability (24 h) Av. Accuracy (%): 107,46%
  3x freeze-thaw Av. Accuracy (%): 104,96%
  Benchtop stability (19 h) Ac. Accuracy (%): 106,81%
QC conc. 0,3 ng/ml
  Autosampler stability (24 h) Av. Accuracy (%): 104,87%
  3x freeze-thaw Av. Accuracy (%): 98,61%
  Benchtop stability (19 h) Ac. Accuracy (%): 104,39%
QC conc. 0,05 ng/ml
  Autosampler stability (24 h) Av. Accuracy (%): 103,51%
  3x freeze-thaw Av. Accuracy (%): 109,93%
  Benchtop stability (19 h) Ac. Accuracy (%): 89,44%
QC conc. 12 ng/ml
  Autosampler stability (24 h) Av. Accuracy (%): 110,93%
  3x freeze-thaw Av. Accuracy (%): 103,85%
  Benchtop stability (19 h) Ac. Accuracy (%): 109,38%
QC conc. 30 ng/ml
  Autosampler stability (24 h) Av. Accuracy (%): 99,76%
  3x freeze-thaw Av. Accuracy (%): 97,41%
  Benchtop stability (19 h) Ac. Accuracy (%): 99,8%
